Data published in US20160272992A1, “PROTECTION OF PLANTS AGAINST OXIDATIVE STRESS” (priority 2013, published 2016).

What was measured:
ZmSMRg and ZmSMRh = experiment: qRT-PCR of maize SMR genes after HU treatment; assay type: in vivo; conditions: root tips and leaves
[1] = tested on: 5-day-old wild-type root tips; conditions: 2-mM hydroxyurea; cited from earlier work
Arabidopsis first leaves = experiment: Abaxial epidermal cell number of first leaves of plants grown on HU; assay type: in vivo, Arabidopsis thaliana; conditions: for reduction in epidermal cell number: grown 3 weeks on 1 mM HU, first leaves
Protocol: The smr5 (SALK_100918) and smr7 (SALK_128496) alleles were acquired from the Arabidopsis Biological Research Center. The atm-1, atr-2 and sog1-1 mutants have been described previously (Garcia et al., 2003; Preuss and Britt, 2003; Culligan et al., 2004; Yoshiyama et al., 2009). Unless stated otherwise, plants of Arabidopsis thaliana (L.) Heyhn (ecotype Columbia), were grown under long-day conditions (16 hours of light, 8 hours of darkness) at 22° C. on half-strength Murashige and Skoog (MS) germination medium (Murashige and Skoog, 1962). Arabidopsis plants were treated with HU as described by Cools et al. (2011). For bleomycin treatments, five-day-old seedlings were transferred into liquid MS medium supplemented with 0.3 μg/mL bleomycin. For γ-irradiation treatments, five-day-old in vitro-grown plantlets were irradiated with γ-rays at a dose of 20 Gy. For light treatments, one-week-old seedlings were transferred to continuous high-light conditions (growth rooms kept at 22° C. with 24-hour day/0-hour night cycles and a light intensity of 300-400 μmol m^−2 s^−1) for 2 days, and subsequently retransferred to low-light conditions. The first leaf pair was harvested and incubated in 100% ethanol for epidermis cell drawing as described by De Veylder et al. (2001).
For leaf measurements, first leaves were harvested at 21 days after sowing on control medium, medium supplemented with 1 mM hydroxyurea or 0.3 μg/mL bleomycin. […] The total (blade) area was determined from images digitized directly with a digital camera (Olympus BX51 microscope) mounted on a binocular (Stemi SV 11; Zeiss). From scanned drawing-tube images of the outlines of at least 30 cells of the abaxial epidermis located between 25% to 75% of the distance between the tip and the base of the leaf, halfway between the midrib and the leaf margin, the following parameters were determined: total area of all cells in the drawing and total numbers of pavement and guard cells, from which the average cell area was calculated. […] For confocal microscopy, root meristems were analyzed 2 days after transfer using a Zeiss LSM 510 Laser Scanning Microscope and the LSM Browser version 4.2 software (Zeiss). […] GFP fluorescence was detected with the 488-nm line of an Argon laser. GFP and PI were detected simultaneously by combining the settings indicated above in the sequential scanning facility of the microscope. Acquired images were quantitatively analyzed with the ImageJ v1.45s software (on the World Wide Web at rsbweb.nih.gov/ij/) and Cell-o-Tape plug-ins (French et al., 2012). Chlorophyll a fluorescence parameters were measured using the IMAGING PAM M-Series Chlorofyll Fluorescence (Walz) and associated software. […]

Arabidopsis seedlings = experiment: High-light transfer of seedlings: PSII efficiency (chlorophyll a fluorescence) and leaf appearance; assay type: in vivo, Arabidopsis thaliana
Protocol: Unless stated otherwise, plants of Arabidopsis thaliana (L.) Heyhn (ecotype Columbia), were grown under long-day conditions (16 hours of light, 8 hours of darkness) at 22° C. on half-strength Murashige and Skoog (MS) germination medium (Murashige and Skoog, 1962). Arabidopsis plants were treated with HU as described by Cools et al. (2011). […] For light treatments, one-week-old seedlings were transferred to continuous high-light conditions (growth rooms kept at 22° C. with 24-hour day/0-hour night cycles and a light intensity of 300-400 μmol m^−2 s^−1) for 2 days, and subsequently retransferred to low-light conditions.

## NC(=O)NO [HU, hydroxyurea]
ZmSMRg and ZmSMRh
  transcriptional induction of maize SMR genes ZmSMRg and ZmSMRh: strong up-regulation
[1]
  HU 24 h/0 h fold change, AT1G07500 (Siamese-related 5): 7.863
  HU 24 h/0 h fold change, AT1G09815 (polymerase delta 4): 2.354
  HU 24 h/0 h fold change, AT1G12020 (unknown protein): 1.873
  HU 24 h/0 h fold change, AT1G13330 (Hop2 homolog): 2.949
  HU 24 h/0 h fold change, AT1G17460 (TRF-like 3): 2.378
  HU 24 h/0 h fold change, AT1G30600 (Subtilase family protein): 1.711
  HU 24 h/0 h fold change, AT1G31280 (Argonaute family protein): 1.866
  HU 24 h/0 h fold change, AT1G49030 (PLAC8 family protein): 1.553
  HU 24 h/0 h fold change, AT1G59660 (Nucleoporin autopeptidase): 1.860
  HU 24 h/0 h fold change, AT1G76180 (Dehydrin family protein): 1.659
  HU 24 h/0 h fold change, AT2G18600 (Ubiquitin-conjugating enzyme family protein): 5.521
  HU 24 h/0 h fold change, AT2G21790 (ribonucleotide reductase 1): 2.514
  HU 24 h/0 h fold change, AT2G30360 (SOS3-interacting protein 4): 2.274
  HU 24 h/0 h fold change, AT2G31320 (poly(ADP-ribose) polymerase 2): 2.445
  HU 24 h/0 h fold change, AT2G36910 (ATP binding cassette subfamily B1): 1.569
  HU 24 h/0 h fold change, AT2G45460 (SMAD/FHA domain-containing protein): 2.378
  HU 24 h/0 h fold change, AT2G46610 (RNA-binding RRM/RBD/RNP motifs family protein): 3.593
  HU 24 h/0 h fold change, AT2G47680 (zinc finger CCCH type helicase family protein): 3.422
  HU 24 h/0 h fold change, AT3G02400 (SMAD/FHA domain-containing protein): 2.479
  HU 24 h/0 h fold change, AT3G07800 (Thymidine kinase): 7.160
  HU 24 h/0 h fold change, AT3G12510 (MADS-box family protein): 2.266
  HU 24 h/0 h fold change, AT3G15240 (Serine/threonine-protein kinase WNK-related): 1.790
  HU 24 h/0 h fold change, AT3G20490 (unknown protein): 2.313
  HU 24 h/0 h fold change, AT3G25250 (AGC kinase family protein): 1.853
  HU 24 h/0 h fold change, AT3G27060 (Ferritin/ribonucleotide reductase-like family protein): 4.595
  HU 24 h/0 h fold change, AT3G27620 (alternative oxidase 1C): 2.056
  HU 24 h/0 h fold change, AT3G27950 (GDSL-like Lipase/Acylhydrolase superfamily protein): 1.641
  HU 24 h/0 h fold change, AT3G42860 (zinc knuckle CCHC-type family protein): 2.445
  HU 24 h/0 h fold change, AT3G45730 (unknown protein): 5.637
  HU 24 h/0 h fold change, AT4G02390 (Poly(ADP-ribose) polymerase): 7.701
  HU 24 h/0 h fold change, AT4G04750 (Major facilitator superfamily protein): 1.625
  HU 24 h/0 h fold change, AT4G11740 (Ubiquitin-like superfamily protein): 1.653
  HU 24 h/0 h fold change, AT4G15480 (UDP-Glycosyltransferase superfamily protein): 2.196
  HU 24 h/0 h fold change, AT4G19130 (Replication factor-A protein 1-related): 2.305
  HU 24 h/0 h fold change, AT4G21070 (Breast cancer susceptibility1): 10.375
  HU 24 h/0 h fold change, AT4G22960 (Unknown function DUF544): 5.315
  HU 24 h/0 h fold change, AT4G28950 (RHO-related protein from plants 9): 9.680
  HU 24 h/0 h fold change, AT4G29170 (Mnd1 family protein): 2.898
  HU 24 h/0 h fold change, AT4G35740 (DEAD/DEAH box RNA helicase family protein): 2.594
  HU 24 h/0 h fold change, AT5G02220 (unknown protein; SMR4): 4.500
  HU 24 h/0 h fold change, AT5G03780 (TRF-like 10): 7.111
  HU 24 h/0 h fold change, AT5G06190 (unknown protein): 2.878
  HU 24 h/0 h fold change, AT5G11460 (Protein of unknown function DUF581): 5.483
  HU 24 h/0 h fold change, AT5G14920 (Gibberellin-regulated family protein): 2.789
  HU 24 h/0 h fold change, AT5G14930 (senescence-associated gene 101): 1.542
  HU 24 h/0 h fold change, AT5G20850 (RAS associated with diabetes protein 51): 4.643
  HU 24 h/0 h fold change, AT5G24280 (Gamma-irradiation and mitomycin c induced 1): 4.823
  HU 24 h/0 h fold change, AT5G25810 (Integrase-type DNA-binding superfamily protein): 1.558
  HU 24 h/0 h fold change, AT5G40840 (Rad21/Rec8-like family protein): 3.375
  HU 24 h/0 h fold change, AT5G48720 (X-ray induced transcript 1): 5.296
  HU 24 h/0 h fold change, AT5G49480 (Ca2+-binding protein 1): 1.952
  HU 24 h/0 h fold change, AT5G55490 (Gamete expressed protein 1): 1.670
  HU 24 h/0 h fold change, AT5G60100 (pseudo-response regulator 3): 1.619
  HU 24 h/0 h fold change, AT5G60250 (Zinc finger C3HC4-type RING finger family protein): 8.907
  HU 24 h/0 h fold change, AT5G64060 (NAC domain containing protein 103): 5.579
  HU 24 h/0 h fold change, AT5G66130 (RADIATION SENSITIVE 17): 2.888
  HU 24 h/0 h fold change, AT5G66985 (unknown protein): 3.294
  HU 24 h/0 h fold change, AT5G67360 (Subtilase family protein): 1.676
  HU 24 h/0 h fold change, AT5G67460 (O-Glycosyl hydrolases family 17 protein): 2.799
Arabidopsis first leaves; SMR5^KO SMR7^KO double mutant, 1 mM HU, compared with single knockouts
  reduction in leaf size and cell number: even less
Arabidopsis first leaves; SMR5^KO plants
  reduction in epidermal cell number: 29%
Arabidopsis first leaves; SMR7^KO plants
  reduction in epidermal cell number: 30%
Arabidopsis first leaves; control plants (Col-0)
  reduction in epidermal cell number: 47%
Arabidopsis seedlings; one-week-old seedlings, 48 hours high light, in the presence of HU vs absence
  maximum quantum efficiency of PSII (F′v/F′m): decrease was even more pronounced
Arabidopsis seedlings; plants grown in the presence of HU, within 48 hours after transfer
  anthocyanin accumulation after transfer to high light: accumulated anthocyanins in the young leaf tissue
